In brackets after ≈: the same amount, converted by molar mass.
Tested on: Radical scavenging activity
Assay: Antioxidant activity assessed as DPPH free radical scavenging activity
Format: functional

With `C[C@@H]1O[C@@H](OC[C@H]2O[C@@H](Oc3c(-c4ccc(O)cc4)oc4cc(O)c(O)c(O)c4c3=O)[C@H](O)[C@@H](O)[C@@H]2O)[C@H](O)[C@H](O)[C@H]1O` the IC50 was 43.2 µg/mL (≈ 70.8 µM).

In the case of `C[C@H]1O[C@H](O[C@H]2[C@H](Oc3c(-c4ccc(O)cc4)oc4cc(O)cc(O)c4c3=O)O[C@H](CO)[C@@H](O)[C@@H]2O)[C@@H](O)[C@@H](O)[C@@H]1O`, the IC50 is reported as 79.6 µg/mL (≈ 134 µM).

Work on `O=C1O[C@H]([C@@H](O)CO)C(O)=C1O` [ASCORBIC ACID] yielded an IC50 of 22 µg/mL (≈ 125 µM).

`COc1ccc(O)c(C(C)(C)C)c1.COc1ccc(O)cc1C(C)(C)C` [BUTYLATED HYDROXYANISOLE] showed an IC50 of 21 µg/mL.

Molecule `O=C(O)/C=C/c1ccc(O)c(O)c1` [CAFFEIC ACID] has an IC50 of 12 µg/mL (≈ 66.6 µM).

With `O=C(O)c1cc(O)c(O)c(O)c1` [GALLIC ACID] the IC50 was 5 µg/mL (≈ 29.4 µM).

Work on `CC(Cc1ccc(O)c(O)c1)C(C)Cc1ccc(O)c(O)c1` (configuration not stated) [NORDIHYDROGUAIARETIC ACID] yielded an IC50 of 12 µg/mL (≈ 39.7 µM).

— ChEMBL document CHEMBL1150897, “Antioxidant flavonoid glycosides from Daphniphyllum calycinum” (J Nat Prod, 1998)
